Here are results for one molecule from patent US20220306986A1, “NON-INVASIVE METHODS FOR SELECTIVELY ENRICHING PLURIPOTENT CELLS” (MEMORIAL SLOAN-KETTERING CANCER CENTER, priority 2019, published 2022).

What all share (type): cell-based, mouse
For test [1], the system named is ESCs. The test is described as follows: Glutamine deprivation: growth curves, viability and colony formation. The conditions noted are these: DM-αKG 4 mM. The procedure: For glutamine deprivation experiments in mouse ESCs, cells were initially plated in standard S/L medium as described above. The following day, cells were washed with PBS and then cultured in experimental medium containing a 1:1 mix of glutamine-free DMEM (Gibco 11960-051) and glutamine-free Neurobasal medium (Gibco 21103-049) including 10% dialyzed FBS, 2-mercaptoethanol, and LIF as described above and containing (“+Q”) or lacking (“−Q”) L-glutamine (2 mM) as indicated. When indicated, dimethyl-α-ketoglutarate (Sigma 349631) dissolved in DMSO was added to a final concentration of 4 mM. […]
ESCs were seeded at a density of 30,000-40,000 cells per well of a 12-well plate. The following day, three wells of each line were counted to determine the starting cell number. […] Cells were counted on the indicated days thereafter using a Beckman Multisizer 4e with a cell volume gate of 400-10,000 fL. […]
Evaluation of cell viability and Nanog-GFP expression. […] Cells were evaluated for GFP and DAPI on either a LSRFortessa or LSR-II machine and FACSDiva software ([…] Dickinson). […] Nanog-GFP expression was measured by GFP mean fluorescence intensity and quantified using FlowJo v9.0. […]

Another test deals with Nanog-GFP ESCs. Put plainly: Nanog-GFP expression by flow cytometry after pulse treatment. The conditions noted are these: 24 h pulse in glutamine-containing S/L medium, 24 h recovery; FIG. 7E-7F. The procedure: For transient glutamine withdrawal (“pulse”) experiments, cells were initially plated in standard S/L medium as described above. The following day, cells were washed with PBS and then changed to experimental medium containing a 1:1 mix of glutamine-free DMEM and glutamine-free Neurobasal medium including 10% dialyzed FBS, 2-mercaptoethanol, LIF, and containing (“Ctrl”) or lacking (“Pulse”) L-glutamine as indicated. 24 hours later, cells were washed with PBS and then returned to glutamine-replete medium (“Recover”). 24 hours later, cells were subjected to either image analysis, flow cytometry, or plated for colony formation assays as indicated. For glutamine pulse experiments in human ESCs, cells were initially plated at a density of 300,000 cells/well in a tissue-culture treated polystyrene 12-well plate coated with vitronectin (Thermo Fisher Scientific, A14700) in E8 medium (Thermo Fisher Scientific, A1517001) containing 10 uM ROCK inhibitor Y-27632 (Selleck Chemicals S1049). […] Cells were evaluated for GFP and DAPI on either a LSRFortessa or LSR-II machine and FACSDiva software ([…] Dickinson). […] Nanog-GFP expression was measured by GFP mean fluorescence intensity and quantified using FlowJo v9.0. […]
A general note: A flow cytometer gives signals particle by particle.

Test [2] has as its system ESCs. The test is described as follows: Colony formation assay (alkaline phosphatase staining) after pulse treatment. The procedure: For transient glutamine withdrawal (“pulse”) experiments, cells were initially plated in standard S/L medium as described above. The following day, cells were washed with PBS and then changed to experimental medium containing a 1:1 mix of glutamine-free DMEM and glutamine-free Neurobasal medium including 10% dialyzed FBS, 2-mercaptoethanol, LIF, and containing (“Ctrl”) or lacking (“Pulse”) L-glutamine as indicated. 24 hours later, cells were washed with PBS and then returned to glutamine-replete medium (“Recover”). 24 hours later, cells were subjected to either image analysis, flow cytometry, or plated for colony formation assays as indicated. For glutamine pulse experiments in human ESCs, cells were initially plated at a density of 300,000 cells/well in a tissue-culture treated polystyrene 12-well plate coated with vitronectin (Thermo Fisher Scientific, A14700) in E8 medium (Thermo Fisher Scientific, A1517001) containing 10 uM ROCK inhibitor Y-27632 (Selleck Chemicals S1049). 24 hrs after plating, medium was changed to modified E8 medium containing: DMEM high glucose without glutamine (Thermo Fisher 11960044), 10.7 mg/L Transferrin (Sigma T0665), 64 mg/L L-Ascorbic Acid (Sigma A890), 14 ug/L Sodium Selenite (Sigma S5261), 543 mg/L Sodium Bicarbonate (Research Products International 144558), 19.4 mg/L insulin (Sigma 19278), 100 ug/L bFGF (EMD Millipore GF003AF), 2 ug/L TGFβ1 (Peprotech 10021), and 2 mM L-glutamine. After 24 hrs of culture in modified E8 medium, medium was changed to modified E8 medium containing 2 mM or 0 mM L-glutamine for 24 hrs. All cells were then changed to modified E8 medium containing 2 mM L-glutamine and cultured for 24 hrs before harvest for analysis. […] For ESC colony formation assays, colonies were scored manually in a blinded fashion. For reprogramming experiments, alkaline-phosphatase colonies were scored automatically using ImageJ (NIH). Briefly, images of each well were binarized using the Default function and particles greater than 8 pixels with a circularity of 0.7-1.0 were counted.

Consider `COC(=O)CCC(=O)C(=O)OC` [cell-permeable αKG, dimethyl-α-ketoglutarate], for which the “survival and proliferation in the absence of glutamine (population doublings)” value in the test on ESCs [1] (48 h glutamine-free medium, FIG. 2G, 2H) was “capable of rescuing survival and proliferation in the absence of glutamine”. The “proliferation, viability and self-renewal of ESCs under glutamine withdrawal” value with ESCs [1] (S/L culture, FIG. 2A, 6A-6B) was “sufficient to compensate for glutamine withdrawal”. In the test on Nanog-GFP ESCs, the “Nanog-GFP expression after pulsed treatment” value is recorded as “transiently increase Nanog-GFP expression”. Besides, the “benefit of the glutamine withdrawal pulse on self-renewal (colony formation)” value with ESCs [2] (4 mM DM-αKG added during 24 h glutamine withdrawal, FIG. 3H) is listed as “abrogated the benefit of the pulse”. Further, in the test on ESCs [2] (24 h pulse, 24 h recovery before plating, FIG. 3G, 7G), the “self-renewal capacity of the ESC population after pulsed treatment (colony formation)” value is “no durable effect”.
